According to ChEMBL document CHEMBL1909046, “DrugMatrix in vitro pharmacology data”:

Assays:
[1] = molecular target: Aldo-keto reductase family 1 member B1 (Rattus norvegicus, UniProt P07943); assay: biochemical; format: tissue-based, Lens of camera-type eye;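 also: inhibition of aldose reductase enzyme activity, measured with DL-glyceraldehyde as the substrate; in other assays of this panel Not Active means under 50% inhibition at 10 µM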
Estrogen receptor = molecular target: T1, Estrogen receptor (Homo sapiens, UniProt P03372); settings: sf9; also: in other assays of this panel Not Active means under 50% inhibition at 10 µM
T1 sequence (P03372 whole entry): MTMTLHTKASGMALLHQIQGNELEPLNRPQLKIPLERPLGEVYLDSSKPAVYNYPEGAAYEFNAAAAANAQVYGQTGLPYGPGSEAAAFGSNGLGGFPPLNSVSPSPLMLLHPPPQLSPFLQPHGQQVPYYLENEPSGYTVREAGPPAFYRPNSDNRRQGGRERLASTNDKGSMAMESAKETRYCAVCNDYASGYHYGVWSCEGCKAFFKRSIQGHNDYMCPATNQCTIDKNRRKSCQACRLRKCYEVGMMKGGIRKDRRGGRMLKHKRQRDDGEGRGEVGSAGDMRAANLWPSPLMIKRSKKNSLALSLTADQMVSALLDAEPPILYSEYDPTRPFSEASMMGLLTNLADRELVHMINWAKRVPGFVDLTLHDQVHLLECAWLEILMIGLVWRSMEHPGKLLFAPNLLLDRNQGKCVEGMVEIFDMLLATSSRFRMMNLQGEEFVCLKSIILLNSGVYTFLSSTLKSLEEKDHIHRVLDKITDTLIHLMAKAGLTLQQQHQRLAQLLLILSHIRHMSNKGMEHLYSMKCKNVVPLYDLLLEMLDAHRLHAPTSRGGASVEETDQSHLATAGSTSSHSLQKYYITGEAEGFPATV

[2] = molecular target: T2, C-X-C chemokine receptor type 1 (Homo sapiens, UniProt P25024); also: in other assays of this panel Not Active means under 50% inhibition at 10 µM
T2 sequence (P25024 whole entry): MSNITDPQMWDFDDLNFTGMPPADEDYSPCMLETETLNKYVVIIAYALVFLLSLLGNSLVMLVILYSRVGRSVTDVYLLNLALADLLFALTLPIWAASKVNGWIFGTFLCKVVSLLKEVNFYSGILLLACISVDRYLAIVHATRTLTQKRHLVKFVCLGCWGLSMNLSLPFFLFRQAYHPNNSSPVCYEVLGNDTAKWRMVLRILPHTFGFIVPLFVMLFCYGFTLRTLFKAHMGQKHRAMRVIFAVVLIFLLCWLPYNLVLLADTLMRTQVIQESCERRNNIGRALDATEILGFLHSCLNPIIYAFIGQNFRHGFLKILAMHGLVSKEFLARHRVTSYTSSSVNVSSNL

[3] = molecular target: T3, Muscarinic acetylcholine receptor M4 (Homo sapiens, UniProt P08173); format: cell membranes, CHO-K1, Membrane; settings: cho-k1; also: in other assays of this panel Not Active means under 50% inhibition at 10 µM
T3 sequence (P08173 whole entry): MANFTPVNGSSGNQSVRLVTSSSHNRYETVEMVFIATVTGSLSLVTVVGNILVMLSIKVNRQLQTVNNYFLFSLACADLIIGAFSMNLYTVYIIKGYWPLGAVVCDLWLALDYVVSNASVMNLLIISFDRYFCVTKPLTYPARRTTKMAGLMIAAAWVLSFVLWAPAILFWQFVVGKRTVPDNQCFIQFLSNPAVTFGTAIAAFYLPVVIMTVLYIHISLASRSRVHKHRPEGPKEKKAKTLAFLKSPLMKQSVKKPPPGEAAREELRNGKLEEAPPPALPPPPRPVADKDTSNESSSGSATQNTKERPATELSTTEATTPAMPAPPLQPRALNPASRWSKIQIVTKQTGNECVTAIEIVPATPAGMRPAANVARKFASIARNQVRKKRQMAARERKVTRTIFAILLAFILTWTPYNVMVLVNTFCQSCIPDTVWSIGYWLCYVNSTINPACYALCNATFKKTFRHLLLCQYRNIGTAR

[4] = molecular target: T4, Alpha-1B adrenergic receptor (Rattus norvegicus, UniProt P15823); assay: DRUGMATRIX: Alpha-1B adrenergic receptor radioligand binding (ligand: prazosin); format: cell membranes, Wistar, Liver, Membrane; settings: Not Active = under 50% inhibition at 10 µM
T4 sequence (P15823 whole entry): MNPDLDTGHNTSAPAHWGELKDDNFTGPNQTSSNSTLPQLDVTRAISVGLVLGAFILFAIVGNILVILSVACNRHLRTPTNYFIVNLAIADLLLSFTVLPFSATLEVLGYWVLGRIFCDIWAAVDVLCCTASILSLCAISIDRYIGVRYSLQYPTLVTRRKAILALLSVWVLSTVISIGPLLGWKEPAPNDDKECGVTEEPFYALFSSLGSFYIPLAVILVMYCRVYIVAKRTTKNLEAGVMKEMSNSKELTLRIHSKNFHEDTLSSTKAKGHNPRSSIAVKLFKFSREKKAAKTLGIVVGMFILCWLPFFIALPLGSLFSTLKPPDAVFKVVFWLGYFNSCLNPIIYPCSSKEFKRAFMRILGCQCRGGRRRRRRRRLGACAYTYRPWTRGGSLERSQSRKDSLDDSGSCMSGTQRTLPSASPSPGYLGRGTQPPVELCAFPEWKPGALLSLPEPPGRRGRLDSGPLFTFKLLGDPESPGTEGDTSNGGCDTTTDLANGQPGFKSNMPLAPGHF

[5] = DRUGMATRIX: Sodium/nucleoside co-transporter radioligand binding (ligand: nitrobenzylthioinosine); format: cell membranes, Cavia porcellus, Dunkin-Hartley, Cerebral cortex, Membrane; settings: Not Active = under 50% inhibition at 10 µM
[6] = molecular target: T5, Cysteinyl leukotriene receptor 1 (Homo sapiens, UniProt Q9Y271); format: cell membranes, Membrane; settings: cho-k1; also: in other assays of this panel Not Active means under 50% inhibition at 10 µM
T5 sequence (Q9Y271 whole entry): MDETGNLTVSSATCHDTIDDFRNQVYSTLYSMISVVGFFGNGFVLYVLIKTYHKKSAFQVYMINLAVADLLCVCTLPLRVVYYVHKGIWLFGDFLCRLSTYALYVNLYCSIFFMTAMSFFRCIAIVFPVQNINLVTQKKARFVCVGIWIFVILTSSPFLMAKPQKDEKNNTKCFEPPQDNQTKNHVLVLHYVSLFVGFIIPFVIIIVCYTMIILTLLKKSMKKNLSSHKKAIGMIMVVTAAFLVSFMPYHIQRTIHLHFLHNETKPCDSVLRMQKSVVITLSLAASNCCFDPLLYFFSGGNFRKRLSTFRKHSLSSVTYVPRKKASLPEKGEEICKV

COLISTIN
Not Active: IC50 [1] | Ki [1] | IC50 (Estrogen receptor) | Ki (Estrogen receptor) | IC50 [2] | Ki [2] | IC50 [3] | Ki [3] | IC50 [4] | Ki [4] | IC50 [5] | Ki [5] | IC50 [6] | Ki [6]
